Experiments:
[1] = test system: male and female healthy volunteers; assay: Country Vigilance-Divided Attention (CVDA) driving scenario on the CRCDS-MiniSim driving simulator; details: for Lane Exceedance (extent of driving outside of lanes) / Total Collisions: Tolperisone 450 mg, Cyclobenzaprine 30 mg, TID; for SDLP in driving simulation compared to placebo (words, FIG. 1): primary endpoint; for Reaction time on the divided attention test: Day 1, compared to placebo (placebo or cyclobenzaprine)
Procedure: Methodology: This was a randomized, placebo-controlled, multiple-dose 3-way cross-over study of the safety and cognitive effects of multiple doses of 150 mg tolperisone film-coated tablets (prepared according to methods described and referred to herein) administered three times daily (TID) in 31 male and female healthy volunteers. […] Subjects received 3 days of each treatment over three treatment periods. Subject participation was approximately 3 weeks as outpatients with 3 days each week as overnight clinic participants. Subjects were screened within 28 days prior to Treatment Period 1 (Visit 2) for eligibility for participation in the study. Subjects who met all inclusion/exclusion criteria were admitted to the clinic on Day 1 to be evaluated for continued eligibility. Subjects performed a practice trial with the driving simulator and the cognitive function test. Subjects were dosed on the morning of Day 1. Approximately one hour after the […] dose on Day 1, subjects were administered the cognitive test, followed by the driving simulator examination. On the morning of Day 2, prior to dosing, subjects were re-administered the cognitive test and driving examination to assess residual next day effects. Subjects repeated cognitive testing and the driving examination on the morning of Day 3, after administration of the AM study medication, to evaluate the cumulative effects of 3 days of dosing. Subjects were discharged on Day 3 with instructions to return to the clinic on […] to repeat the above procedure with the second and third treatments. A follow-up phone call was conducted 1 week (±3 days) following discharge from the clinic on Day 17 to assess for continued safety. The total duration of study participation was approximately 4 weeks (range 4-8 weeks), including Screening and Follow-up.
The pharmacodynamic measures included simulated driving performance as measured by SDLP using the Cognitive Research Corporation Driving Simulator-MiniSim (CRCDS-MiniSim), the Karolinska Sleepiness Scale, the CogScreen Symbol Digit Coding (SDC) test, a self-perceived safety to drive question, the Visual Analog Scale (VAS) to assess subject's motivation and self-appraisal of their driving performance, and an assessment of the relationship between single-dose plasma drug levels and driving performance. Blood samples for the determination of plasma tolperisone concentrations were drawn prior to each AM dosing on Days 1-3, 8-10, 15-17 and post-driving test (15-30 minutes after the drive) on Days 1, 8, and 15. Blood samples collected post-driving test on Days 3, 10, and 17 were drawn between 1.5 and 2 hours after the start of the drive (approximately 10:30 AM to 11:00 AM). Safety was assessed by the monitoring and recording of adverse events, vital sign measurements, clinical laboratory abnormalities, electrocardiograms (ECGs), pregnancy tests, and physical examinations.
The primary endpoint, SDLP, was analyzed using a mixed-model, repeated measures with fixed effects for sequence, period, and treatment, with repeated observations for subjects. An unstructured covariance structure and Kenward-Roger degrees of freedom was used. […] In addition, pair-wise within subject differences in SDLP greater than 4.4 cm in absolute value (equal to the previously found difference between placebo and 0.05% Blood Alcohol Content (BAC) for the CRCDS) were compared using McNemar's test. Pair-wise within subject differences in SDLP were also tested for symmetry about […] using the maximally selected McNemar test. P-values for significance testing of period and sequence effects are also provided. Pair-wise comparisons (hypothesis tests) of differences in least squares means, and 95% confidence intervals on differences will be provided for:
A 62.1 mile (100 km), monotonous, two-lane highway driving task that includes a secondary visual vigilance task (DA).

[2] = test system: male and female healthy volunteers; assay: Digit Symbol Substitution Test (CogScreen Symbol Digit Coding); format: in vivo, human; details: Tolperisone 450 mg, Cyclobenzaprine 30 mg, TID
Procedure: (§1) Subjects were dosed on the morning of Day 1.
This test is used to measure attention, visual scanning, working memory, and speed of information processing. SDC is a computer analogue of the conventional symbol-substitution task found in the WAIS-R Digit Symbol subtest and the Symbol Digit Modalities Test. Details of the use of the SDC are provided in the CogScreen® Examiner Manual, CogScreen LLC, 2016. CogScreen SDC endpoints include: • Number of correct responses; • Response Accuracy; and • Standard deviation of reaction time.

[3] = test system: male and female healthy volunteers; assay: Karolinska Sleepiness Scale (KSS) test; format: in vivo, human; details: for Karolinska Sleepiness Scale (KSS): Tolperisone 450 mg, Cyclobenzaprine 30 mg, TID
Procedure: as §1
The Karolinska Sleepiness Scale (KSS) was used to assess subjective level of sleepiness. This is a subject self-report measure of situational sleepiness and provides an assessment of alertness/sleepiness at a particular point in time. […] Subjects indicated their level of alertness versus sleepiness according to the following scale:
The KSS assessment was performed immediately before and after the simulated driving test Subjects self-reported their KSS assessments and the scores were recorded in the case report form.

[4] = test system: male and female healthy volunteers; assay: Safety: treatment emergent adverse events; format: in vivo, human; details: for Treatment Emergent Adverse Events: Cardiac / Treatment Emergent Adverse Events: Gastrointestinal Disorders / Treatment Emergent Adverse Events: General: Sluggishness / Treatment Emergent Adverse Events: Nervous System Disorders, Attention / Treatment Emergent Adverse Events: Nervous System Disorders, Dizziness / Treatment Emergent Adverse Events: Nervous System Disorders, Headache / Treatment Emergent Adverse Events: Nervous System Disorders, Lethargy / Treatment Emergent Adverse Events: Nervous System Disorders, Somnolence / Treatment Emergent Adverse Events: Psychiatric (Insomnia) / Treatment Emergent Adverse Events: Respiratory / Treatment Emergent Adverse Events: Skin: Tolperisone 450 mg, Cyclobenzaprine 30 mg; for number of Treatment Emergent Adverse Events (TEAEs) reported: n per treatment, 3 days of each treatment
Procedure: as §1
Safety analysis was based on the safety population. Safety measures were summarized using descriptive statistics and listed for each subject. MedDRA thesaurus was used to map adverse events verbatim to preferred terms and body systems. WHOdrug thesaurus (Sep. 1, 2016) was used to map prior medication and concomitant medication verbatim to preferred terms and ATC Class.
The Principal Investigator was responsible for the monitoring of subjects' safety and reporting of all adverse events (AEs) and serious adverse events (SAEs). The study personnel reviewed subject-volunteered information related to subjective complaints, and reviewed all laboratory findings and queried the subject specifically for visits requiring hospitalization, procedures, laboratory follow-up, or unscheduled visits to see their physician. Each trial subject was questioned about AEs during treatment with study drug. All AEs were documented in the subject's source documents as well as on the appropriate case report form (CRF). The Investigator assessed and recorded any AE in detail on the AE CRF pages including a description of the event, the date of onset, severity, time course, duration and outcome, relationship of the AE to study drug, and an alternate etiology for events not considered “probably” related to study drug and any actions taken.

CN(C)CCC=C1c2ccccc2C=Cc2ccccc21 [Cyclobenzaprine, cyclobenzaprine]
Lane Exceedance Maximum and Duration of Exceedance compared to placebo ([1]; Cyc: Days 1 and 2, Tol: any time-point): significantly worse
Lane Exceedance (extent of driving outside of lanes) ([1]; Day 1 (at Tmax)): 3.6
Total Collisions ([1]; Day 1 (at Tmax)): 1.6
Speedings Ratio compared to placebo ([1]; Day 2 and 3): no significant effect
Lane Exceedance (extent of driving outside of lanes) ([1]; Next Day Residual): 3.2
Total Collisions ([1]; Next Day Residual): 0.4
Lane Exceedance (extent of driving outside of lanes) ([1]; Steady State): 2.9
Total Collisions ([1]; Steady State): 0.1
Average speed compared to placebo ([1]; in vivo): did not differ significantly
Divided attention: number of Commission Errors compared to placebo ([1]; in vivo): non-significant
Divided attention: number of Correct Responses compared to placebo ([1]; in vivo): no significant effect
Divided attention: number of Omission Errors ([1]; in vivo): no increase
Total Collisions compared to placebo ([1]; in vivo): no significant increase
SDLP in driving simulation compared to placebo (words, FIG. 1) [1]: significantly impaired effect
Symbol Digit Coding (SDC) Cognitive Research Version ([2]; Day 1 (at Tmax)): 66.4
Symbol Digit Coding (SDC) Cognitive Research Version ([2]; Next Day Residual): 66.7
Symbol Digit Coding (SDC) Cognitive Research Version ([2]; Steady State): 67.4
KSS subjective sleepiness ([3]; Day 1): significantly more subjective sleepiness
Karolinska Sleepiness Scale (KSS) ([3]; Day 1 (at Tmax)): 5.5
KSS subjective sleepiness ([3]; Day 2 or Day 3): did not report feeling more sleepy
Karolinska Sleepiness Scale (KSS) ([3]; Next Day Residual): 4.1
Karolinska Sleepiness Scale (KSS) ([3]; Steady State): 3.8
Treatment Emergent Adverse Events: Cardiac [4]: 1
Treatment Emergent Adverse Events: Gastrointestinal Disorders [4]: 4
Treatment Emergent Adverse Events: General: Sluggishness [4]: 1
Treatment Emergent Adverse Events: Nervous System Disorders, Attention [4]: 0
Treatment Emergent Adverse Events: Nervous System Disorders, Dizziness [4]: 3
Treatment Emergent Adverse Events: Nervous System Disorders, Headache [4]: 0
Treatment Emergent Adverse Events: Nervous System Disorders, Lethargy [4]: 1
Treatment Emergent Adverse Events: Nervous System Disorders, Somnolence [4]: 10
Treatment Emergent Adverse Events: Psychiatric (Insomnia) [4]: 1
Treatment Emergent Adverse Events: Respiratory [4]: 0
Treatment Emergent Adverse Events: Skin [4]: 0
severe AE ([4]; in vivo): one severe AE of dizziness
number of Treatment Emergent Adverse Events (TEAEs) reported [4]: 21

Cc1ccc(C(=O)C(C)CN2CCCCC2)cc1 (stereo not drawn) [Tolperisone, tolperisone]
Reaction time on the divided attention test [1]: statistically significant improvement
Reaction time on the divided attention test ([1]; listed as Tol): significantly faster
Average speed compared to placebo ([1]; in vivo): did not differ significantly
Divided attention: number of Commission Errors compared to placebo ([1]; in vivo): non-significant
Divided attention: number of Correct Responses compared to placebo ([1]; in vivo): no significant effect
Divided attention: number of Omission Errors ([1]; in vivo): no increase
Excessive Ay compared to placebo ([1]; in vivo): no significant increase
Lane Exceedance Maximum and Duration of Exceedance compared to placebo ([1]; in vivo): not seen
Speedings Count compared to placebo ([1]; in vivo): not significantly impacted
Speedings Ratio compared to placebo ([1]; in vivo): no significant effect
Total Collisions compared to placebo ([1]; in vivo): no significant increase
hangover effect the morning following nighttime dosing ([1]; in vivo): does not produce a hangover effect
majority of secondary driving endpoint measures compared to placebo ([1]; in vivo): no statistically significant difference
SDLP in driving simulation compared to placebo (words, FIG. 1) [1]: equivalent results
Symbol Digit Coding (SDC) Cognitive Research Version ([2]; Day 1 (at Tmax)): 66.6
Symbol Digit Coding (SDC) Cognitive Research Version ([2]; Next Day Residual): 69.3
Symbol Digit Coding (SDC) Cognitive Research Version ([2]; Steady State): 70.1
Karolinska Sleepiness Scale (KSS) ([3]; Day 1 (at Tmax)): 3.5
Karolinska Sleepiness Scale (KSS) ([3]; Next Day Residual): 4.0
Karolinska Sleepiness Scale (KSS) ([3]; Steady State): 3.1
KSS self-reported sleepiness ([3]; any time-point): no significant increase
Treatment Emergent Adverse Events: Cardiac [4]: 0
Treatment Emergent Adverse Events: Gastrointestinal Disorders [4]: 1
Treatment Emergent Adverse Events: General: Sluggishness [4]: 0
Treatment Emergent Adverse Events: Nervous System Disorders, Attention [4]: 1
Treatment Emergent Adverse Events: Nervous System Disorders, Dizziness [4]: 1
Treatment Emergent Adverse Events: Nervous System Disorders, Headache [4]: 1
Treatment Emergent Adverse Events: Nervous System Disorders, Lethargy [4]: 0
Treatment Emergent Adverse Events: Nervous System Disorders, Somnolence [4]: 5
Treatment Emergent Adverse Events: Psychiatric (Insomnia) [4]: 0
Treatment Emergent Adverse Events: Respiratory [4]: 1
Treatment Emergent Adverse Events: Skin [4]: 0
discontinuation due to AE ([4]; following the first day of dosing): one subject due to a moderate AE of a Crohn's Disease flare up
number of Treatment Emergent Adverse Events (TEAEs) reported [4]: 15

— US20200390754A1, “METHODS OF ADMINISTERING TOLPERISONE” (Neurana Pharmaceuticals, Inc., priority 2017, published 2020)
